Measured values taken from patent US20230302022A1, “PREVENTING OR MITIGATING CHEMOTHERAPY INDUCED ALOPECIA USING VITAMIN D” (priority 2016, published 2023).

What was measured:
[1] = tested on: MCF-7 (breast cancer with p53 mutation); assay: Cell growth / viability assay, MCF-7; type: cell-based
Procedure: The drug treatment period was usually three days. At the end of the three days, the background OD of the 96-well plate was read at 280 nm, before 20 μL of the “Substrate Cell Titer 96 Aqueous One Solution Reagent” (Promega) was added to each well. The plate was returned to the 37° C. incubator, and its OD at 490 nm was read each hour until an OD of approximately 1.5 was reached. The net OD increase was calculated by subtracting the pre-substrate OD reading.
The impact of the drug on the cells was calculated by comparing the OD at different concentrations in relation to the OD of the control wells (without the drug).
Then these pretreated cells were utilized to set up the cell based assay.

[2] = tested on: Sprague Dawley rats; assay: Cyclophosphamide-induced alopecia in neonatal Sprague Dawley rats, 1,25(OH)2D3 in ethanol; type: in vivo, rat; conditions: 0.2 μg 1,25(OH)2D3 in 150 μL ethanol daily day 5-10, all animals
Procedure: Neonatal Rat model and PCA model. Sprague Dawley rats were purchased from Charles River Laboratories (Wilmington, MA). C3H/HeJ mouse were purchased from Jackson Laboratories (Bar Harbour, ME). Rodents were housed and fed according to NIH guidelines. […] Uskokovic (Hoffman-La Roche, Nutley, NJ). For experiments involving C3H/HeJ mice, 1,25(OH)2D3 was purchased from Sigma (St. Louis, M0). Topical application of 1,25(OH)2D3. 1,25(OH)2D3 was dissolved in absolute ethanol and applied topically with an applicator. Control animals were similarly treated with vehicle only. Animals were then isolated for a period of 3 hours following which the treated area was washed with soap and water and dried. For CIA experiments, 1,25(OH)2D3 was given daily beginning on day 5 after birth and ending on day 10. […] For CIA and PCA, the experimental group was treated with 0.2 μg of 1,25(OH)2D3 in 150 μL of absolute ethanol applied topically over the head and neck. In both instances, the control group received ethanol vehicle only. […] Both chemotherapies were started at 11 days of age. Alopecia was recorded on the tenth day after the first dose of chemotherapy. […] Rats were randomized into two groups of ten rats each. One group received vehicle control, while the other received 0.2 μg 1,25(OH)2D3. […] Animals were observed until complete hair regrowth was obtained.

[3] = Quantification of calcitriol in ex vivo porcine skin layers after 7 days of dermal administration; conditions: for Stratum Corneum, Calcitriol Recovered: 10 μg/mL, mean ± SD
Procedure: The placebo and test articles were administered dermally twice daily approximately 6 hours apart for 7 days during the study. The dose concentrations were 0, 1, 3, 10, 30, and 100 μg/mL, and administered at an application rate of 4 mg/cm^2 (equivalent to 144 mg or 166 μL of test solution). Prior to initiation of administration (Days −4 and −5 for Groups 1 and 2, respectively), the hair was clipped from the application sites using an electric clipper. Care was taken to avoid abrading the skin. The dorsal surface of each animal was divided into five application sites for Group 1 and two application sites for Group 2. Each application site was approximately 6×6 cm with at least a 2 cm space between each site. The placebo and test article formulations were uniformly applied over the specified application site with a glass stirring rod or appropriate instrument. Prior to dosing, the residual test article from the previous dose was gently removed using a soft paper towel (i.e., WyPall®) moistened with tap water.
At the end of the study, the skin was reflected from a ventral midline incision, and sections of treated and untreated skin were collected and preserved. Sections of each 6×6 cm dosing site were first thoroughly surface washed with a mild soap and water mixture (e.g., 1% Ivory Soap in water or equivalent) to remove any residual topical test formulation. The washed skin sections were then wiped clean with ethanol, and were excised down to and including the adipose layer. If the area to be excised is larger than the dosed area, the dosed area was demarked with indelible ink to delineate the skin area that was dosed. The 1.5 cm×1.5 cm sections were laid flat, wrapped in two layers of Saran wrap (or equivalent) and flash frozen in liquid nitrogen. The samples were stored at −70° C. and shipped on dry ice via overnight courier for analysis. Each skin section was identified as appropriate (e.g., animal identification, study number, date, etc.).
Upon arrival at the analysis site, skin sections were placed in water tight plastic bag and thawed by emersion in warm water (˜30° C.-35° C.). Each skin section was gently rinsed with distilled de-ionized water to remove any residual test article and blood. All subcutaneous tissue (e.g., adipose) was removed by manual scalpel ablation. Within the central region of the dosed area, four individual 1 cm^2 circles (replicates) were demarked, and each site was subsequently identified and the actual area recorded. […] The skin sections were weighed and the weight recorded. […]
Following tape stripping, the skin was separated into epidermis (sans stratum corneum, simply referred to herein after as “epidermis”) and dermis by heat exposure to 60° C. for approximately 1-1.5 minutes. […] The epidermis and dermis were weighed and the weight recorded. […]

[4] = tested on: chloroleukemia C51 cells; conditions: 0.2 μg pretreatment prior to cyclophosphamide; cited from earlier work
[5] = tested on: NIH-3T3 (immortalized fibroblast); assay: Cell growth / viability assay, NIH-3T3; type: cell-based
Procedure: The drug treatment period was usually three days. At the end of the three days, the background OD of the 96-well plate was read at 280 nm, before 20 μL of the “Substrate Cell Titer 96 Aqueous One Solution Reagent” (Promega) was added to each well. […] The net OD increase was calculated by subtracting the pre-substrate OD reading. The impact of the drug on the cells was calculated by comparing the OD at different concentrations in relation to the OD of the control wells (without the drug). The results of the Net OD as a function of drug concentration was plotted and used to determine ED50 values.

[6] = tested on: HEKa cells; assay: Real-time PCR Heat Shock Protein array, calcitriol-treated HEKa cells; type: cell-based, human; conditions: 0.1 μg/mL calcitriol, two independent experiments
Procedure: The PCR array analysis utilized two groups of genes—those related to Heat Shock Proteins (SABiosciences), and those related to Neuroscience Ion Channels and Transporters (SABioscience). Cell culture: Primary human epidermal keratinocytes (HEKa) were maintained in Epilife Medium (Cascade Biologics, Inc., Portland OR) along with Human Keratinocyte Growth Supplement (Cascade Biologics, Inc., Portland OR). […] D3 treatment of HEKa cells: […] Vehicle control group of cells were treated with 5 mL media containing 1 μL of ethanol. Cells were harvested 3, 6, 16, 24, 48, or 72 hours after the start of the treatment. RNA isolation: Cells were lysed for RNA isolation at different treatment times using the RNeasy Mini kit (Qiagen, Inc., Valencia CA) following the manufacturer's instructions. RNA was quantified by measuring optical density at 260 nm. First Strand Synthesis: […] Real-time PCR: Products from the first strand synthesis were diluted with water, mixed with the SYBR green master mix (SABiosciences., Frederick MD) and loaded onto PCR arrays. Real time PCR was run on the PCR Arrays (Heat Shock Protein Arrays, and Neuroscience and Ion Channel Arrays) (SABiosciences, Frederick MD) on a Biorad CFX96. Data analyses were performed using the PCR array data analysis software available on the SABiosciences website.

[7] = tested on: patients; assay: Phase I dose-escalation study: safety and tolerability in cancer patients on taxane-based chemotherapy; type: in vivo
Procedure: The dosage will be escalated if the clinical toxicity is declared acceptable (see below). five dose levels will be considered for escalation (10, 20, 40, 60 and 80 μg/mL). Determination of dose limiting toxicity (DLT, defined in section 8.2) will be made during the first 28 days of topical treatment. No intrapatient dose escalation will be performed. […] The dose escalation scheme (Table 8.1) will occur as follows:
If the patient presents with symptoms of hypercalcemia, serum calcium should be determined and treatment should be stopped immediately. Hypercalcemia will be defined using CTCAE version 4.0 grade 3 (or higher), which is defined as serum calcium >12.5-13.5 mg/dL; >3.1-3.4 mmol/L or ionized calcium >1.6-1.8 mmol/L and hospitalization is indicated. For patients with asymptomatic hypercalcemia determined by elevated serum calcium, their ionized calcium levels will first be checked. If the ionized calcium level is in fact elevated, the study drug will be stopped. If the ionized calcium level is normal, the patient will remain on the study and ionized calcium will be followed rather than serum calcium.
Each patient underwent PK analysis, adverse event monitoring, patient self-assessment diaries (1-10 scale), and blinded photographic assessments. […] Toxicity was determined on a weekly basis during Cycle 1 (i.e., the first 28 days of topical agent application) and subsequently every four weeks. Patients were managed with adequate safety (adverse event) monitoring and pharmacokinetic (PK) analysis in order to determine levels of exposure.

## C=C1/C(=C\C=C2/CCC[C@]3(C)[C@@H]([C@H](C)CCCC(C)(C)O)CC[C@@H]23)C[C@@H](O)C[C@@H]1O [Calcitriol, (5Z,7E)-9,10-secocholesta-5,7.10(19Hriene-1 a,33.25-triol]
[1]; MCF-7
  effect of calcitriol on the cytotoxic effect of Doxorubicin: did not appear to appreciably alter
[1]; MCF-7, 0.1 μg/mL calcitriol for two passages
  response to doxorubicin, cisplatin and erlotinib after calcitriol exposure: did not alter
[2]
  cyclophosphamide-induced alopecia: did not develop alopecia
[3]; 1-100 μg/mL, exception: dermis at 100 μg/mL in a single male minipig
  skin layers in which calcitriol was measurable: measurable in most stratum corneum and epidermal samples, but not in the dermal samples
[3]; 3 to 100 μg/mL applications
  applied dose correlation to epidermal tissue level: near linear increase
[3]; Female Minipigs
  Stratum Corneum, Calcitriol Recovered: 1.65 ± 1.80 (3) ng/cm^2
[3]; Male Minipigs
  Stratum Corneum, Calcitriol Recovered: 59.6 ± 14.1 (3) ng/cm^2
[4]
  survival rate vs ethanol vehicle: No statistically significant difference in the survival rate
[5]
  effect of calcitriol on cell growth: no significant growth promoting or growth inhibiting effects
  effect of calcitriol on the cytotoxic effect of Doxorubicin: did not appear to appreciably alter
[6]
  DNAJC6 mRNA Regulation Pattern: Downregulated
  HSF4 mRNA Regulation Pattern: Upregulated at 48 hours
  HSPA2 mRNA Regulation Pattern: Upregulated at 48 hours
  HSPB1 mRNA Regulation Pattern: Down regulated at 48 hours
[7]; 5 μg/mL × 1 mL BID
  AEs Related to Study Drug: Mild Scalp pain (1)
[7]; all dose levels
  serious adverse events reported (number): 25
[7]; human, in vivo
  dose limiting toxicities (DLTs): No dose limiting toxicities
[7]; human, in vivo, 3 months
  serious adverse events unrelated/unlikely to the study drug: 84%
  serious adverse events unrelated/unlikely to the study drug (number): 21
[7]; one patient, 40 μg/mL, passing a renal calculi
  serious adverse events possibly related to the study drug (number): 4
[7]; up to 80 μg/mL
  maximum tolerated dose (MTD): not detected
